# Measured values reported in patent publication US20110118313A1, “IDENTIFICATION OF A MOLECULAR SIGNATURE FOR ANTIPSYCHOTICS AND SERMS” (priority 2008, published 2011).
# Key:
# ARPE-19 cell line = assay: Gene expression profiling (U133A2.0 microarrays) of drug-treated ARPE-19 cells; antipsychotic signature of lipid homeostasis genes; type: cell-based, human; conditions: ARPE-19, 10 μM, 24 hrs; for up-regulation of the top 20 probe sets of the antipsychotic group profile: FIG. 3
# Excerpt: The retinal pigment epithelia cell line, ARPE-19/HPV-16, was chosen to establish a database of drug profiles because it is from non-cancerous human origin, with a normal karyotype, and can easily be grown as monolayer in 96-well plates. H4 is a hypertriploid cell line from glioblastoma origin, which was used only for independent replication. Cell lines were propagated according to supplier's specifications (ATCC Manassas, Va.). Compounds were obtained from Sigma (St. Louis, Mo.) or Vanda Pharmaceuticals (Rockville, Md.). Cells were aliquoted to 96-well plates (˜2×10e5 cells/well) and incubated for 24 hrs prior to providing fresh media with a drug, or the drug vehicle (water, dimethyl sulfoxide, ethanol, methanol, or phosphate-buffered saline solution). Drugs were diluted 1000 fold in buffered Advanced D-MEM/F-12 culture medium (Invitrogen, Carlsbad, Calif.) containing non-essential amino acids and 110 mg/L sodium pyruvate. In these conditions, no significant changes of pH were expected, which was confirmed by the monitoring of the pH indicator present in the medium. A final 10 μM drug concentration was chosen because it is believed to fit in the range of physiological relevance, and has been used in other cell line studies (Ferro et al. 2006; Lamb et al. 2006). Microscopic inspection of each well was conducted at the end of the treatment to discard any instance where cells had morphological changes consistent with apoptosis, and to verify that the drug had not precipitated in the culture medium.
# Cells were harvested 24 hrs after treatment and RNA extracted using the RNeasy 96 protocol (Qiagen, Valencia, Calif.). Gene expression for 22,238 probe sets of 12,490 genes was generated with U133A2.0 microarrays following the manufacture's instructions (Affymetrix, Santa Clara, Calif.). Antipsychotics were profiled in duplicate or triplicate, with multiple vehicle controls on each plate. A total of 708 microarrays were analysed including 74 for the 18 antipsychotics, 499 for the other 448 compounds, and 135 for vehicle controls.
# Each drug treatment-vehicle control pair (treatment instance) was represented by a non-parametric rank-ordered list constructed as follows, similarly to the method described by Lamb and colleagues (Lamb et al. 2006). The raw scan data were first converted to average difference values using MAS 5.0 (Affymetrix). The average difference values of both treatment and control data were set to a minimum threshold of 50 if below 50. For each treatment instance, all probe sets were then ranked based on their amplitude, or level of expression relative to the vehicle control (or average of controls when more than one was used). Amplitude was defined as the ratio of expression (t−v)/[(t+v)/2] where t corresponds to treatment instance and v to vehicle instance.
# Each drug group profile was created using our novel Weighted Influence Model, Rank of Ranks (WIMRR) method which underscores the rank of each probe set across the entire gene expression profile rather than the specific change in expression level. WIMRR takes the average rank of each probe set across all of the members of the group and then re-ranks the probe sets from smallest average rank to largest average rank.
# A gene-set enrichment metric based on the Kolmogorov-Smirnov (KS) statistic was used in a similar fashion by Lamb and colleagues (Lamb et al. 2006). Specifically, for a given set of probes, the KS score gives a measure of how up (positive) or down (negative) the set of probes occurs within the profile of another treatment instance.
# [1] = tested on: Saccharomyces cerevisiae heterozygotes; conditions: cited from earlier work
# [2] = patients; cited from earlier work
# [3] = 2-3 weeks of antipsychotic treatment, schizophrenic patients; cited from earlier work
# mouse striatum = conditions: cited from earlier work
# [4] = rats; cited from earlier work
# [5] = patients with bipolar disorder; cited from earlier work
# [6] = women affected with schizophrenia; cited from earlier work
compound,measurement,setting,value
OCCN1CCN(CCCN2c3ccccc3Sc3ccc(Cl)cc32)CC1 [perphenazine],up-regulation of the top 20 probe sets of the antipsychotic group profile,ARPE-19 cell line,stronger up-regulation
CN(C)CCCN1c2ccccc2Sc2ccc(Cl)cc21 [chlorpromazine],"effect on genes involved in yeast fatty acid biosynthesis, sterol biosynthesis or phospholipid transport",[1],strong effect
CCc1c(C)[nH]c2c1C(=O)C(CN1CCOCC1)CC2 (centres unmarked) [Molindone],up-regulation of the top 20 probe sets of the antipsychotic group profile,ARPE-19 cell line,lowest effect
CCN(CC)CCOc1ccc(C(=C(Cl)c2ccccc2)c2ccccc2)cc1 [clomiphene],effect on lipid homeostasis (gene expression signature),ARPE-19 cell line,alter lipid homeostasis
OCCN1CCN(CCCN2c3ccccc3Sc3ccc(C(F)(F)F)cc32)CC1 [fluphenazine],up-regulation of the top 20 probe sets of the antipsychotic group profile,ARPE-19 cell line,stronger up-regulation
O=C1Cc2cc(CCN3CCN(c4nsc5ccccc45)CC3)c(Cl)cc2N1 [ziprasidone],effect on lipid homeostasis (gene expression signature),ARPE-19 cell line,share a common gene expression signature
same,risk for weight gain and hyperlipidemia,[2],much lower risk
O=C1CCc2ccc(OCCCCN3CCN(c4cccc(Cl)c4Cl)CC3)cc2N1 [aripiprazole],"plasma levels of certain lipid classes (PE, PC, TG, LY)",[3],minimal effect
O=C(CCCN1CCC(O)(c2ccc(Cl)cc2)CC1)c1ccc(F)cc1 [haloperidol],"effect on genes involved in yeast fatty acid biosynthesis, sterol biosynthesis or phospholipid transport",[1],strong effect
same,differential expression of genes involved in lipid metabolism,mouse striatum,differential expression of genes involved in lipid metabolism
CC/C(=C(\c1ccccc1)c1ccc(OCCN(C)C)cc1)c1ccccc1 [tamoxifen],effect on lipid homeostasis (gene expression signature),ARPE-19 cell line,alter lipid homeostasis
same,obesity induced by the antipsychotic sulpiride,[4],prevent obesity
same,mania symptoms,[5],reduce mania symptoms
CN1CCCCC1CCN1c2ccccc2Sc2ccc([S+](C)[O-])cc21 (centres unmarked) [mesoridazine],up-regulation of the top 20 probe sets of the antipsychotic group profile,ARPE-19 cell line,lowest effect
COc1cc(C(C)=O)ccc1OCCCN1CCC(c2noc3cc(F)ccc23)CC1 [iloperidone],up-regulation of the top 20 probe sets of the antipsychotic group profile,ARPE-19 cell line,stronger up-regulation
Cc1nc2n(c(=O)c1CCN1CCC(c3noc4cc(F)ccc34)CC1)CCCC2 [risperidone],effect on lipid homeostasis (gene expression signature),ARPE-19 cell line,share a common gene expression signature
same,over-expression of RNAs for the desaturase genes FADS1 and FADS2,ARPE-19 cell line,over-expression
same,"plasma levels of certain lipid classes (PE, PC, TG, LY)",[3],significant increases
same,risk for weight gain and hyperlipidemia,[2],much lower risk
Cc1cc2c(s1)Nc1ccccc1N=C2N1CCN(C)CC1 [olanzapine],risk for weight gain and hyperlipidemia,[2],significant increased risk
CN1CCN(CCCN2c3ccccc3Sc3ccc(C(F)(F)F)cc32)CC1 [trifluoperazine],"effect on genes involved in yeast fatty acid biosynthesis, sterol biosynthesis or phospholipid transport",[1],strong effect
O=C(c1ccc(OCCN2CCCCC2)cc1)c1c(-c2ccc(O)cc2)sc2cc(O)ccc12 [raloxifene],effect on lipid homeostasis (gene expression signature),ARPE-19 cell line,alter lipid homeostasis
C[C@]12CC[C@@H]3c4ccc(O)cc4CC[C@H]3[C@@H]1CC[C@@H]2O [oestradiol],symptoms of psychosis and cognitive functioning,[6],improve
